# Entries after “also recorded” stand apart in the source; their conditions may differ. Read-outs that look alike come from different tables or passages of the source.
# Tests used:
# [1] = target: T1, human C-P4H1 (Homo sapiens, UniProt P13674); assay: Human C-P4H1 activity measured with Succinate-Glo Hydroxylase assay (also high-throughput screening); type: biochemical; conditions: for inhibition of C-P4H1 activity (luminescence): different concentrations, 200 nM C-P4H1
# T1 construct: made in house; host or cells: HEK-293FT
# T1 sequence (P13674 18-534): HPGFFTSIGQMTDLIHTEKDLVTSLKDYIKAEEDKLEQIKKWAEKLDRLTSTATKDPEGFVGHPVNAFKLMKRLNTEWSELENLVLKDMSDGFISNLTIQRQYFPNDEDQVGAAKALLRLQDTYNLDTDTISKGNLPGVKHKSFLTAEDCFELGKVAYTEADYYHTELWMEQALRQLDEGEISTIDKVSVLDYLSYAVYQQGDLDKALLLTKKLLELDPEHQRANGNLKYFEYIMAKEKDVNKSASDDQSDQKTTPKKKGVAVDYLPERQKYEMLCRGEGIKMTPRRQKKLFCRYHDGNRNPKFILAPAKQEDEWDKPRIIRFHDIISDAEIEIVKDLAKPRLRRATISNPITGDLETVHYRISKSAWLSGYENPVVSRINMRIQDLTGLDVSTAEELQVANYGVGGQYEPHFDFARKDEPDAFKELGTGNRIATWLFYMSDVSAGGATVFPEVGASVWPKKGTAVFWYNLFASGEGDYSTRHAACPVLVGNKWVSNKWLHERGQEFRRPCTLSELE
# T1 sequence (P07237 18-508 partner): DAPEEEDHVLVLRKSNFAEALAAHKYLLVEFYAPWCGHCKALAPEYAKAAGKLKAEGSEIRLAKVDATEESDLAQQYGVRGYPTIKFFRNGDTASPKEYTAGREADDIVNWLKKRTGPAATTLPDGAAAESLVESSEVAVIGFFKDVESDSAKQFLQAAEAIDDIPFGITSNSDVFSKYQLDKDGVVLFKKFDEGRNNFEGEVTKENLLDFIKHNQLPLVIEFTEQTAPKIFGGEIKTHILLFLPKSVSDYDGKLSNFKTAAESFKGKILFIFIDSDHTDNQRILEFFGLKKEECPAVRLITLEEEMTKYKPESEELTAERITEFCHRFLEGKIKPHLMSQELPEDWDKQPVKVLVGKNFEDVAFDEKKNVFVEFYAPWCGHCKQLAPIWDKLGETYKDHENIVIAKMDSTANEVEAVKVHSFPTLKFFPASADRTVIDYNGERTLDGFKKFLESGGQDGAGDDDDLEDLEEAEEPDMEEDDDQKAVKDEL
# Procedure: Human CP4H1 activity Assays were carried out at room temperature in 10 mM HEPES buffer containing 10 mM NaCl, pH 7.4. […] FeSO4 was prepared freshly in 10 mM HCl prior to each time use. Following 1 hour reaction, the reaction solution was subjected to Hydroxyproline Colorimetric Assay and Succinate-Glo™ Hydroxylase assay respectively.
# (§1) Succinate-Glo™ Hydroxylase assay was ran following the protocol of Succinate-Glo™ JmjC Demethylase/Hydroxylase Assay (Promega, V7991). Briefly, following the human CP4H1 assay, 10 μL Succinate Detection Reagent I was added, including the enzymes 3-oxoacid CoA-transferase (SCOT) and succinyl CoA ligase (SCS), and acetoacetyl-CoA. See, TM488 Technical Manual and U.S. Pat. No. 9,677,117 for “Bioluminescent Succinate Detection Assay,” issued Jun. 13, 2017, assigned to Promega Corporation. Mix assay plate with a plate shaker for 30 seconds, and incubate at room temperature for 60 minutes. Add 20 μl of Succinate Detection Reagent II, including the enzyme luciferase, to each well of the assay plate to generate light from the ATP. See, Id. Mix assay plate with a plate shaker for 30 seconds, and incubate at room temperature for 10 minutes. Measure the luminescence with a plate-reading luminometer (BioTek).
# […] Then mix with peptide substrate (GlyProProGly(SEQ ID NO:1)OEt), 500 μM), FeSO4 (50 μM), catalase (0.1 mg/mL), ascorbate (2 mM), and α-ketoglutarate (100 μM) to react 1 hour at room temperature. The reaction volume was usually 10 μL. After the reaction, Succinate-Glo™ Hydroxylase assay was conducted in the corresponding 96-well or 384-well plate. 50 μM DHB was set as a positive control in each plate.
# [2] = tested on: collagen hydroxylation in chicken tendon cells; conditions: collagen hydroxylation assay, doi: 10.1042/bj2610127, read-out: IC50 reported in previous research; cited from earlier work
# [3] = Succinate-Glo Hydroxylase assay in the absence of C-P4H1 (counter test); type: biochemical; conditions: no C-P4H1 in the reaction
# Procedure: as §1
# To further evaluate reliability of the Succinate-Glo™ assay, varied concentration of peptide substrate GPPG (FIG. 3A) and hydroxyl donor α-KG (FIG. 3B) were tested in the hydroxylation reaction, respectively. Increased concentration of GPPG and α-KG induced luminescence assay in a dose dependent manner. DHB has been identified as a C-P4Hs' inhibitor^35. To determine whether this assay can evaluate c-P4H1 inhibitor's activity, C-P4H1 was incubated with different concentration of DHB for 30 min at 4° C., and then the hydroxylation reaction and the bioluminescence-based assay were performed. […] The IC50 was detected at around 20 μM, which is much lower than the IC50 value of 0.1 mM reported in the previous research with the collagen hydroxylation assay in the chicken tendon cells (doi: 10.1042/bj2610127); this is probably due to the sensitivity difference between two methods. In the absence of C-P4H1, DHB had little effect on the Succinate-Glo™ assay, indicating the inhibitory effect is specific on the prolyl hydroxylation reaction (FIG. 3D).
# [4] = tested on: HS-578T cells; assay: 3D culture assay, invasive branching; type: cell-based; conditions: 10 μM and 20 μM, 24 hours
# Procedure: (§2) 3D laminin-rich extracellular matrix (3D lrECM) on-top cultures were prepared by trypsinization of cells from tissue culture plastic^25. Growth Factor Reduced BD Matrigel™ was plated on the bottom of the cell culture dish. MDA-MB-231 and HS-578 cells were seeded on the top of the matrigel layer, and additional medium containing 10% Matrigel was added on the top.
# (§3) All the 3D culture assay images were acquired by Nikon microscope and were quantified with the Nikon analysis software. Results are reported as mean±S.E.M; the significance of difference was assessed by independent Student's t-test. P<0.05 represents statistical significance and P<0.01 represents sufficiently statistical significance. All reported P values were 2-tailed.
# (§4) It has been shown that silence of P4HAs suppress invasive tumor growth in three-dimensional (3D) tissue culture model^19,25. 3D culture model has been widely used to evaluate drug effect^38. To further evaluate the inhibitory ability of these chemicals in tumor progression, triple-negative breast cancer cell lines, MDA-MB-231 cells and HS-578T cells were treated with Silodosin and Ticlopidine in 3D culture^39. […] Invasive branching structure of cancer cells in 3D culture is associated with tumor invasion and aggressive phenotypes^15, 19, 25. […]
# [5] = tested on: HS-578T cells; assay: Western blot of type I collagen in conditioned medium of treated cells; type: cell-based; conditions: 48 hours, 10 μM and 20 μM
# Procedure: Chemical treated Hs578 cells were lysed in 2% sodium dodecyl sulfate (SDS) in phosphate-buffered saline (PBS) buffer containing phosphatase and protease inhibitor cocktails (EMD Millipore, 539131). Protein concentration was measured using Pierce™ BCA Protein Assay Kit (Thermo Fisher Scientific, 23227). Equal amounts of protein lysates or cell conditional medium (normalized to cell numbers) were subjected to SDS gel electrophoresis, immunoblotted with primary antibodies (Anti-Collagen I antibody, ab34710; Anti-tubulin, Cell Signaling 2148)) and DyLight 680/800-conjugated secondary antibodies (DyLight 680-conjugated goat anti-rabbit IgG secondary antibody Thermo Fisher Scientific, 35569; DyLight 800-conjugated goat anti-mouse IgG secondary antibody Thermo Fisher Scientific, SA5-35521).
# To determine whether the identified potential inhibitors suppress the C-P4H1 activity in tissue culture, HS-578T cells were treated with Silodosin or Ticlopidine for 48 hours. Since collagen maturation and secretion was regulated by the C-P4H1, conditioned media were collected from control and Silodosin- or Ticlopidine-treated cells for western blot analysis.
# [6] = tested on: MDA-MB-231 cells; assay: 3D culture assay, invasive branching / invasive growth; type: cell-based; conditions: MDA-MB-231, 10 μM and 20 μM, 48 hours
# Procedure: as §2, §3, §4
"IC50 ([1]; 0.1 μM WT C-P4HA1 (FIG. 3E), read-out: IC50 of wild type C-P4H1 inhibition) [µM]","IC50 ([1]; C-P4H1 200 nM, preincubated 30 min at 4° C. (FIG. 3C), read-out: IC50 of C-P4H1 inhibition) [µM]",effect on the luminescence assay in the absence of C-P4H1 ([3]; listed as Silodocin),Structure (SMILES),inhibition of C-P4H1 activity (luminescence) [1],IC50 [2] [µM],effect on the luminescence assay in the absence of C-P4H1 [3],invasive branching structures in 3D culture [4],protein levels of type I collagen in the conditioned media [5],invasive branching structures in 3D culture [6],"kinetic property of C-P4H1 inhibition ([1]; dose curves, FIG. 4D and 4F)"
~40,~20,–,"CCOC(=O)c1ccc(O)c(O)c1 [DHB, ethyl-3,4-dihydroxybenzoic acid]",significantly reduced luminescence values,100,little effect; also recorded: did not inhibit,–,–,–,–
–,–,did not inhibit,C[C@H](Cc1cc2c(c(C(N)=O)c1)N(CCCO)CC2)NCCOc1ccccc1OCC(F)(F)F [Silodosin],inhibited C-P4H1 activity in a dose-dependent manner,–,little effect,significantly reduced invasive branching structures,reduced protein levels of type I collagen,significantly reduced invasive branching structures,faster kinetic property compared to ticlopidine

# Reference: patent US12564578B2, “Collagen P4H1 inhibitor and its use” (University of Kentucky Research Foundation, priority 2019, dated 2026)
